Measurements as given in ChEMBL document CHEMBL1201862, “PubChem BioAssay data set” (2004).
Activity calls are given as the source filed them.

Columns and labels:
[1] = target: T1, Eukaryotic translation initiation factor 2-alpha kinase 3 (Homo sapiens, UniProt Q9NZJ5); assay: Dose response cell-based high-throughput screening assay to measure PERK inhibition. [Related pubchem assays: 1416 ]; format: functional
T1 sequence (Q9NZJ5 whole entry): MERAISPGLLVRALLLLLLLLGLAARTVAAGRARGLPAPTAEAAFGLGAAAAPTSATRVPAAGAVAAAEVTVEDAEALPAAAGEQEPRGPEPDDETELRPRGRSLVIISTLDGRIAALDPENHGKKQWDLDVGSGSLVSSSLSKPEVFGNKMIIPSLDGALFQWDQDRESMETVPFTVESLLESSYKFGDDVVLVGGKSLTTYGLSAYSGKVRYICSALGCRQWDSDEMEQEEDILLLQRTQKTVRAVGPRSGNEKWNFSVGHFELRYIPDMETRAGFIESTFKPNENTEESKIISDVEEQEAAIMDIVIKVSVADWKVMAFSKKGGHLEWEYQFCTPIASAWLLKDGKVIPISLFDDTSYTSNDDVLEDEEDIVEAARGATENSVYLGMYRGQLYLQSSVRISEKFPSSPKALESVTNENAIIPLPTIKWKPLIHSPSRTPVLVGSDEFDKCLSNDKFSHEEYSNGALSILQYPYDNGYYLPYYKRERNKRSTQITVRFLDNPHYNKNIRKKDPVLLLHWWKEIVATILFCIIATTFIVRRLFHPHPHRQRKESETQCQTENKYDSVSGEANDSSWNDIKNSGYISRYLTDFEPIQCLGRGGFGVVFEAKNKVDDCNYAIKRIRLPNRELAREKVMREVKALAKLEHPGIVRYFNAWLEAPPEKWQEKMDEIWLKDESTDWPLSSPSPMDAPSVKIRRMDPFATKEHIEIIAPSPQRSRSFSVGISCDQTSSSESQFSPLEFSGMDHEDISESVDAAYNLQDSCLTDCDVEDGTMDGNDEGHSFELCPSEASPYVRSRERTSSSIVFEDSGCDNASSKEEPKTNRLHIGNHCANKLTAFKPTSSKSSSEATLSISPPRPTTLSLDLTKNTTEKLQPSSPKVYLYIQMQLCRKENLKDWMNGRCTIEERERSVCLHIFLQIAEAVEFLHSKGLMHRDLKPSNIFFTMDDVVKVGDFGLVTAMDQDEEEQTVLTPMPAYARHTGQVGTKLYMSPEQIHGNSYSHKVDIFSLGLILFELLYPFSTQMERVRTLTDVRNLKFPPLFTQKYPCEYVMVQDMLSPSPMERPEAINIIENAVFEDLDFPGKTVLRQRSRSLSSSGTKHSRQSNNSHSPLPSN

[2] = target: T1, Eukaryotic translation initiation factor 2-alpha kinase 3; assay: Counterscreen assay for PERK inhibitors: Dose response cell-based high throughput screening assay to measure inhibition of PERK at 6 hours. [Related pubchem assays: 1522, 1416 ]; format: functional
[3] = tested on: Streptococcus; assay: Luminescence Microorganism-Based Dose Response Follow up to Identify Compounds Cytotoxic to Streptococcus. [Related pubchem assays: 1677 (Project Summary), 1915, 1914, 1902 (Retest at Dose), 1900 (Counter Screen), 1662 (Primary HTS)]; format: functional, organism-based
[4] = target: T2, Streptokinase A (Streptococcus pyogenes serotype M1, UniProt P10520); assay: viability-normalized secreted streptokinase activity reduction – plasminogen activation absorbance, OD405, dose response (AID 1914); format: functional, Streptococcus pyogenes M1 GAS;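 note: secreted streptokinase activity via plasminogen activation per viability signal from cell pellet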
T2 sequence (P10520 whole entry): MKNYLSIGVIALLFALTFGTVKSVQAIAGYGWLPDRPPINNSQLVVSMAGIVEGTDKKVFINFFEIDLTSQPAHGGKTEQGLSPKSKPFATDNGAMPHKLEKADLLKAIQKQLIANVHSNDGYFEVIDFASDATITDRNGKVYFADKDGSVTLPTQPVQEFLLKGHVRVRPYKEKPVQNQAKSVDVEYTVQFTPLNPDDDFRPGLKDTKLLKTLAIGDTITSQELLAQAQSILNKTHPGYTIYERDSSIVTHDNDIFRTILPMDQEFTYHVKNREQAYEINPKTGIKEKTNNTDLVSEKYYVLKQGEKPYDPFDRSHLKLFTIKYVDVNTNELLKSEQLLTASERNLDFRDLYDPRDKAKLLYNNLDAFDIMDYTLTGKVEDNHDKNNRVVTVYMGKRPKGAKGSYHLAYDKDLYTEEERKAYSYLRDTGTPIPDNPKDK

[5] = tested on: Streptococcus sp. 'group A'; assay: Streptococcus pyogenes SK(-)GAS viability under kanamycin – luminescence, BacTiterGlo, confirmation, counter-screen for streptokinase expression inhibitor project, dose response (AID 1900); format: functional, organism-based
[6] = tested on: Streptococcus; assay: GAS UMAA2166 growth inhibition – luminescence, BacTiterGlo, counter-screen for streptokinase expression inhibitor project, dose response (AID 1915); format: functional, organism-based;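 note: potency for reduction of bacterial viability or growth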
[7] = target: T3, Heat shock factor protein 1 (Mus musculus, UniProt P38532); assay: decrease of HSF1-responsive luciferase luminescence – cell-based, NIH3T3, dose retest, confirmation (AID 2382); format: functional;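 note: NIH3T3 fibroblasts with HSF1-driven luciferase reporter stressed by proteasome inhibitor MG132; luminescence from HSF1-driven luciferase expression after 8 hours of MG132 stress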
T3 sequence (P38532 whole entry): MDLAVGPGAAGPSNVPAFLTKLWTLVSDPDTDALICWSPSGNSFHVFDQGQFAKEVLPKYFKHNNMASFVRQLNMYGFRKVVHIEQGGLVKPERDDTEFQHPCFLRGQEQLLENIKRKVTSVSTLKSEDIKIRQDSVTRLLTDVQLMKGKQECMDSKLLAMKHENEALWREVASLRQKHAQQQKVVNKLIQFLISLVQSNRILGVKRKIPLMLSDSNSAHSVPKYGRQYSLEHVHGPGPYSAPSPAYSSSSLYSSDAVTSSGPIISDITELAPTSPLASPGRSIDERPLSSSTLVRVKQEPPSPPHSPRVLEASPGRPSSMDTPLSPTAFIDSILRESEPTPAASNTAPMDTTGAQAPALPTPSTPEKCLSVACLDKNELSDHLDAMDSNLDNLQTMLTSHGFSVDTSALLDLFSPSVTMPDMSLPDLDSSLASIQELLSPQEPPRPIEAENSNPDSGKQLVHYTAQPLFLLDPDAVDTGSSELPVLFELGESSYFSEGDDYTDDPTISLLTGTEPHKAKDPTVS

[8] = target: Cytochrome P450 2D6 (Homo sapiens, UniProt P10635); assay: qHTS Assay for Inhibitors and Substrates of Cytochrome P450 2D6. [Related pubchem assays: 410 ]; format: ADME; conditions: read-out: Potency
[9] = target: Cytochrome P450 3A4 (Homo sapiens, UniProt P08684); conditions: Potency;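 note: confirmatory qHTS run detecting inhibitors and substrates of CYP3A4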
[10] = target: Cytochrome P450 2C9 (Homo sapiens, UniProt P11712); conditions: Potency
[11] = target: T4, Photoreceptor-specific nuclear receptor (Homo sapiens, UniProt Q9Y5X4); assay: ligands suppressing NR2E3 nuclear receptor activity – biochemical, TR-FRET, dose response (AID 463256); format: functional
[12] = target: T5, Peroxisome proliferator-activated receptor gamma/Nuclear receptor corepressor 2 (Homo sapiens, UniProt P37231+Q9Y618); assay: Counterscreen for NR2E3 inverse agonists: TR-FRET-based biochemical high throughput dose response assay to identify inverse agonists of the interaction between peroxisome proliferator-activated receptor gamma (PPARg) and nuclear receptor co-repressor 2 (NCOR2).; format: functional
[13] = target: T6, NADPH oxidase 1 (Homo sapiens, UniProt Q9Y5S8); format: functional, cell-based;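 note: Cell-based assay with luminescence read-out, IC50 derived from inhibitor dose-response curves; intracellular ROS from endogenous NOX1 in intact HT29 colon cancer cells; potency of inhibitors that lower the ROS luminescence signal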
T6 sequence (Q9Y5S8 whole entry): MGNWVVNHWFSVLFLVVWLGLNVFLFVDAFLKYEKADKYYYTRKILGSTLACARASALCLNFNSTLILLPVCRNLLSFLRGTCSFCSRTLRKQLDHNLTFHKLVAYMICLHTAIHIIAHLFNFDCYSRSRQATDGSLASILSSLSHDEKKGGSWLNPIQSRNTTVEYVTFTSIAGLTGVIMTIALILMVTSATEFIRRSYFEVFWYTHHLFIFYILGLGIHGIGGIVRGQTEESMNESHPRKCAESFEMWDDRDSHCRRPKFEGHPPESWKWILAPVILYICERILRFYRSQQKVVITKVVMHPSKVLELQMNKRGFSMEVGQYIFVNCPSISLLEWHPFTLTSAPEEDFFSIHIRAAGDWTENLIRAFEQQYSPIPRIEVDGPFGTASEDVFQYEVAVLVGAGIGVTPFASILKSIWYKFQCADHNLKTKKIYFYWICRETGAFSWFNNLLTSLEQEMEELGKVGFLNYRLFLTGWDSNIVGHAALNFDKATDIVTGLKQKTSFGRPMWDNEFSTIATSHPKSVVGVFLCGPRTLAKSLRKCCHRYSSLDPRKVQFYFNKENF

[14] = target: Large T antigen (Simian virus 40, UniProt P03070); format: functional, Betapolyomavirus macacae;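 note: Confirmatory-stage PubChem screen for compounds that inhibit SV40 T antigen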
[15] = target: Benomyl/methotrexate resistance protein (Candida albicans, UniProt P28873); assay: Candida albicans Mdr1 pump inhibition curves – singleplex, Cherry Pick1 hits, dose response (AID 588608); format: functional
[16] = target: T5, Peroxisome proliferator-activated receptor gamma/Nuclear receptor corepressor 2; format: functional
[17] = target: Induced myeloid leukemia cell differentiation protein Mcl-1 (Homo sapiens, UniProt Q07820); format: functional
[18] = target: T4, Photoreceptor-specific nuclear receptor; format: functional
[19] = Luminescence Cell-Based Dose Response to Identify Activators of Luciferase Translation or Activity in H4-C Neuroglioblastoma Cells. [Related pubchem assays: 1829 (Project Summary), 1814 (Primary HTS)]; format: functional
[20] = Luminescence Cell-Based Dose Response to Identify Activators of 5'UTR Stem-Loop Driven Prion Protein mRNA Translation in H4-C Neuroglioblastoma Cells. [Related pubchem assays: 1829 (Project Summary), 1814 (Primary HTS)]; format: functional
[21] = tested on: H4; assay: Luminescence Cell-Based Dose Response HTS to Identify Activators of 5'UTR Stem-Loop Driven Prion Protein mRNA Translation in H4 Neuroglioblastoma Cells. [Related pubchem assays: 1829 (Project Summary), 1814 (Primary HTS)]; format: functional; conditions: Homo sapiens
[22] = Luminescence Cell-Based Dose Response HTS to Identify Activators of Luciferase Translation or Activity in H4 […] Cells. [Related pubchem assays: 1829 (Project Summary), 1814 (Primary HTS)]; format: functional
[23] = Luminescence Cell-Based Dose Confirmation to Identify Activators of 5'UTR Stem-Loop Driven Alpha-Synuclein mRNA Translation in H4 Neuroglioblastoma Cells. [Related pubchem assays: 1829 (Project Summary), 1814 (Primary HTS)]; format: functional
[24] = target: Aspartyl aminopeptidase (Plasmodium falciparum 3D7, UniProt Q8I2J3)
[25] = target: Procathepsin L (Homo sapiens, UniProt P07711)
[26] = Luminescence Cell-Based Dose Confirmation HTS to Identify Activators of 5'UTR Stem-Loop Driven Alpha-Synuclein mRNA Translation in H4 Neuroglioblastoma Cells. [Related pubchem assays: 1829 (Project Summary), 1814 (Primary HTS)]; format: functional

Chain of Cytochrome P450 2D6 (P10635 whole entry): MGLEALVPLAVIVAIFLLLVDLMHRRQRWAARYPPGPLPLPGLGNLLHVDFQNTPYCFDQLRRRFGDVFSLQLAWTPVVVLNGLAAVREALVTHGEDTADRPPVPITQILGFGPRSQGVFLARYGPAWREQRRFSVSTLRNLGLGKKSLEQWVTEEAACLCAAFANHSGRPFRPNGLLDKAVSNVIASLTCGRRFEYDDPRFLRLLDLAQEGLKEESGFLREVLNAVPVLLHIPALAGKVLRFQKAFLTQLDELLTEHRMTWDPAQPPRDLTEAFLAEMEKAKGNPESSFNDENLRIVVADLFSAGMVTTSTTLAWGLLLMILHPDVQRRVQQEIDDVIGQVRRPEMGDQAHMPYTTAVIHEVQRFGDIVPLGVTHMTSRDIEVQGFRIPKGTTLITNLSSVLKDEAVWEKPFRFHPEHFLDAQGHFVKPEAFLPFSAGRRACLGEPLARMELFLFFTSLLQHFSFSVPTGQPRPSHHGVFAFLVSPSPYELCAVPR
T5 sequence (P37231 whole entry): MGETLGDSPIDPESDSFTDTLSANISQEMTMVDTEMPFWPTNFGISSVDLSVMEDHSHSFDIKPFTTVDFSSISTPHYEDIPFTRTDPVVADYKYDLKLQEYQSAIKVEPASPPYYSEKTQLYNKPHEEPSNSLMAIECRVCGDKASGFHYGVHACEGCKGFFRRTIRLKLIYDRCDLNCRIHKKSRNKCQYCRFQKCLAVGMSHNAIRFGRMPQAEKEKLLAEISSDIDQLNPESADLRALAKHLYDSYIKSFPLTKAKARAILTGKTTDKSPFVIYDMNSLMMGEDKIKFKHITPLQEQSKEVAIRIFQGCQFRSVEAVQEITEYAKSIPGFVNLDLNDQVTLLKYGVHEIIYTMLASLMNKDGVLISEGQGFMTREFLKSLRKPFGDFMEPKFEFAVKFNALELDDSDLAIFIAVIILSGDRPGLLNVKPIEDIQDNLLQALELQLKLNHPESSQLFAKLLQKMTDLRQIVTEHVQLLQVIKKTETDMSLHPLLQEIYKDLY
T5 sequence (Q9Y618 whole entry): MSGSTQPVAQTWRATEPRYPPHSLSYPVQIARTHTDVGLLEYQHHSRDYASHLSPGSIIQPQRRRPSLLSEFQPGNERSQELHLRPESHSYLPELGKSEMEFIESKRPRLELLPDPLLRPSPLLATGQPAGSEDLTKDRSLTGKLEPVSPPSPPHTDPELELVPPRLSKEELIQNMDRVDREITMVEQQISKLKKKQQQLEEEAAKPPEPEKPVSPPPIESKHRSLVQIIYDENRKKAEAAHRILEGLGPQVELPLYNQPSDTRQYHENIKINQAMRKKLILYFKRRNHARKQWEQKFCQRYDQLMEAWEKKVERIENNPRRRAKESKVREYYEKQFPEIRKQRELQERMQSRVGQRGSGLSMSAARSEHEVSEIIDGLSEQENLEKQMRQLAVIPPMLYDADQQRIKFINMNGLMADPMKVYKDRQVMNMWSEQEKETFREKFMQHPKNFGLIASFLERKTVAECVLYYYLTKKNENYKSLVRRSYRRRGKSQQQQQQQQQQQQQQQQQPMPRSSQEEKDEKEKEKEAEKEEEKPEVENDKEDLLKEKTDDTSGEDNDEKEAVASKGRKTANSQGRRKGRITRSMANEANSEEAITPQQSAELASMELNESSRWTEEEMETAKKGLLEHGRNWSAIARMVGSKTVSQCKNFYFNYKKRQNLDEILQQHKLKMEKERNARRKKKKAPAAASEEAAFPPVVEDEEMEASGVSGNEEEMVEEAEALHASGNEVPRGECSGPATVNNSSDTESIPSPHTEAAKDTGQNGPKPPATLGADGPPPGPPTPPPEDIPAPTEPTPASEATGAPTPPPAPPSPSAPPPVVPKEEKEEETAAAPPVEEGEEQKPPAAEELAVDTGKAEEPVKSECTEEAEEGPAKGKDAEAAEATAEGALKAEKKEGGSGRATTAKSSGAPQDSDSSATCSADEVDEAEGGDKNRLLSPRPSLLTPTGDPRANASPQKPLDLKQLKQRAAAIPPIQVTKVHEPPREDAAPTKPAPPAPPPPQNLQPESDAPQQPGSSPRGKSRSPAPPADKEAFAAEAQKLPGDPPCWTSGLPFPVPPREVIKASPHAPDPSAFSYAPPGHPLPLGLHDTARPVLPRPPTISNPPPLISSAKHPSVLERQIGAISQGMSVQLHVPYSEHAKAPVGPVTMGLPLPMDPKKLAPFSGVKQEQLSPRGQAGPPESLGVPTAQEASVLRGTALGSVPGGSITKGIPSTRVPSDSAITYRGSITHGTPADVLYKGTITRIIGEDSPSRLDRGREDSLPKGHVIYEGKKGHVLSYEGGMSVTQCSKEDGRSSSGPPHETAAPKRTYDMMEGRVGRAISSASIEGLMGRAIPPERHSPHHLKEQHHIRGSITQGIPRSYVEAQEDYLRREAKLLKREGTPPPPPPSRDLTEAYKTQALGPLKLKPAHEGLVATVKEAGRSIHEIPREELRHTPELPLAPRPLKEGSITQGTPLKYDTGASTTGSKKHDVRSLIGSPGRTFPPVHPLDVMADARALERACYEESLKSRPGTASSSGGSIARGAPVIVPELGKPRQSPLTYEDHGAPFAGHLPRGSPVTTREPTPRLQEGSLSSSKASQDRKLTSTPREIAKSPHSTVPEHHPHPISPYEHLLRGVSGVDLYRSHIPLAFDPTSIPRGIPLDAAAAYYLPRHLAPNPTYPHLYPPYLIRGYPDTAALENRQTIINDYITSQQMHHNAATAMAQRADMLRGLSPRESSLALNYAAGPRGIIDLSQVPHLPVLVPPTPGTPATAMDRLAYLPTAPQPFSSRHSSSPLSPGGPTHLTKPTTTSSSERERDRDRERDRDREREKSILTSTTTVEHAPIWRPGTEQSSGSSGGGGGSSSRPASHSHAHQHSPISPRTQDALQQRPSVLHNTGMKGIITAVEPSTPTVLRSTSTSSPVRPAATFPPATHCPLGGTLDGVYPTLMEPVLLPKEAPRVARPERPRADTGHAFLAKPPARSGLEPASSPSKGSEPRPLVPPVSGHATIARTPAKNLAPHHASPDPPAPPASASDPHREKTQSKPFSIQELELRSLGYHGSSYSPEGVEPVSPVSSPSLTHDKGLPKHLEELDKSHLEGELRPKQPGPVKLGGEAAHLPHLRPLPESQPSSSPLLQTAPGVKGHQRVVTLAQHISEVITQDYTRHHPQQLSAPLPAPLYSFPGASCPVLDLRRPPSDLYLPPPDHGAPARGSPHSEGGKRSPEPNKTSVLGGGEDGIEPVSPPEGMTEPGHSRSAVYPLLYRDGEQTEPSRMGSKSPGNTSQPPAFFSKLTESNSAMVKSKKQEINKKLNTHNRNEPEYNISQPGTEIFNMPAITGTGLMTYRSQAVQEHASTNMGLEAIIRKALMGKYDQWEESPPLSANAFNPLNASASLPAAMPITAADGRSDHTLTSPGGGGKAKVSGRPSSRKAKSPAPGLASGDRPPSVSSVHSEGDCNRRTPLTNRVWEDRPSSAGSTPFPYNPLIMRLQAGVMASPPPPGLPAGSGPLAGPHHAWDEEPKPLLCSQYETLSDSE
T4 sequence (Q9Y5X4 whole entry): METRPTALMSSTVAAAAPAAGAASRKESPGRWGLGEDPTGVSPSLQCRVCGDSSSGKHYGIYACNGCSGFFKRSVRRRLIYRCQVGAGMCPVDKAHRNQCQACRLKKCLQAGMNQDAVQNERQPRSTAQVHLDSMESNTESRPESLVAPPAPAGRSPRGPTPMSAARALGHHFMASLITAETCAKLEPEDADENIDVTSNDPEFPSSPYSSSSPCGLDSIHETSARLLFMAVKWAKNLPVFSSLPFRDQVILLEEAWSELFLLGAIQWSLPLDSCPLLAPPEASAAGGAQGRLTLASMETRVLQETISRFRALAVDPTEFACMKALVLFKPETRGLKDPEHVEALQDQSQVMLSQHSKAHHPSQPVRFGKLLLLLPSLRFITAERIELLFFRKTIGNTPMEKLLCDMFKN
Chain of Cytochrome P450 2C9 (P11712 whole entry): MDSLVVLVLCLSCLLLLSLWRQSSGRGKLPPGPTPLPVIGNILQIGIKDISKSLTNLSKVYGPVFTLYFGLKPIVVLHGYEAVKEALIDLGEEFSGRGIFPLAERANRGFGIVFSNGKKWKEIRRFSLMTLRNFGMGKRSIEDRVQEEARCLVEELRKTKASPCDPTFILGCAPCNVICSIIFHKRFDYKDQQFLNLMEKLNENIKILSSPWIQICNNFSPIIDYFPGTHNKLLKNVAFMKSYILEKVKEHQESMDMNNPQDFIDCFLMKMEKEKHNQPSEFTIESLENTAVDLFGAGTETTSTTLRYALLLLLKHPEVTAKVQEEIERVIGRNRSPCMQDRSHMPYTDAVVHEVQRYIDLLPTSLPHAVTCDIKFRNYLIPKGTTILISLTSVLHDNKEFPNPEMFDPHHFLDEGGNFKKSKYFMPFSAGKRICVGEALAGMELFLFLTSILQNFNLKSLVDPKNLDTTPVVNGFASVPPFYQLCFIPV
Chain of Aspartyl aminopeptidase (Q8I2J3 whole entry): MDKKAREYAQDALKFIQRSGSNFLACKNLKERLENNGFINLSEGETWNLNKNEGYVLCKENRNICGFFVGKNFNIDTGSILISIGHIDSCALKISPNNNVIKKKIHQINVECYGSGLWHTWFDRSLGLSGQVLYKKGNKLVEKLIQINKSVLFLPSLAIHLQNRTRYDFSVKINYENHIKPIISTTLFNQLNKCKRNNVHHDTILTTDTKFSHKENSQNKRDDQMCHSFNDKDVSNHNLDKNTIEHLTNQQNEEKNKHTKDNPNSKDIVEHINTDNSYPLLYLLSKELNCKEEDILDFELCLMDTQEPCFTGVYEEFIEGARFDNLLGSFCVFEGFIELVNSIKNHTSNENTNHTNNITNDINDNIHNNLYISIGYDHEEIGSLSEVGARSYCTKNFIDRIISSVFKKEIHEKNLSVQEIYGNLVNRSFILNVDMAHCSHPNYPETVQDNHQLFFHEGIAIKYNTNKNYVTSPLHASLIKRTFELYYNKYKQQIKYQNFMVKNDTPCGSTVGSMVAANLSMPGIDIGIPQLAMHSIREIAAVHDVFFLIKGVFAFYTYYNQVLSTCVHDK

Question: Which EC50 [1] does the source give for `CC(C)Cn1c(S(=O)(=O)O)nc2ccccc21` here?
Answer: Its EC50 is > 55.7 µM (not active).

Question: And the EC50 [2]?
Answer: Its EC50 is > 55.7 µM (not active).

Question: For `O=C(CSc1ccc(Cl)cc1)N1c2ccccc2Sc2ccccc21`, which EC50 [3] is on record?
Answer: Its EC50 is > 500 µM (not active).

Question: Which EC50 [4] does the source give for `Cc1cccc(NC(=O)C2SC(Nc3c(C)cccc3C)=C(C(=O)N3CCOCC3)C2=N)c1` (stereo not given) here?
Answer: The EC50 was 3.32 µM (active).

Question: And the EC50 [3]?
Answer: The EC50 was 4.32 µM (active).

Question: What about the EC50 [5] of the same compound?
Answer: The EC50 was 959 nM (active).

Question: What about the EC50 [6] of the same compound?
Answer: The EC50 was > 150 µM (not active).

Question: What about the EC50 [7] of the same compound?
Answer: The EC50 was > 195 µM (not active).

Question: What does the source list for `COc1cc2ccc(=O)oc2c(O)c1OCC=C(C)C` [CAPENSIN]?
Answer: AC50 [8]: 25.1 µM (inconclusive); AC50 [9]: 12.6 µM (inconclusive); AC50 [10]: 31.6 µM (inconclusive)

Question: With `Cc1cc(C)c2nc(SCC(=O)NCCC3=CCCCC3)cc(C)c2c1` as the compound, how does the IC50 [11] read?
Answer: Its IC50 is > 39.8 µM (not active).

Question: And the IC50 [12]?
Answer: The IC50 was > 39.8 µM (not active).

Question: Which AC50 [8] does the source give for `Cc1cc(F)ccc1OC1C=CC(c2ccc3c(c2)OCO3)OC1CO` (stereo not given) here?
Answer: The AC50 was 3.98 µM (inconclusive).

Question: With `c1ccc(-c2nc(-c3ccco3)[nH]c2-c2ccccc2)cc1` as the compound, how does the IC50 [13] read?
Answer: Its IC50 is > 17 µM (not active).

Question: Which IC50 [14] does the source give for `Cc1ccc(-c2c3c([nH]c(=S)c2C#N)CCCC3)o1` here?
Answer: Its IC50 is 35.4 µM (active).

Question: And the EC50 [15]?
Answer: Its EC50 is 6.14 µM (active).

Question: What about the IC50 [16] of the same compound?
Answer: Its IC50 is 1.72 µM (active).

Question: And the IC50 [17]?
Answer: The IC50 was 2.4 µM (active).

Question: What about the IC50 [18] of the same compound?
Answer: Its IC50 is 1.09 µM (active).

Question: Which results are given for `Cc1cc(/C=N/NC(=O)c2cccc(F)c2)c(C)n1-c1ccccc1`?
Answer: EC50 [19]: 0.217 µM (active); EC50 [20]: 0.849 µM (active); EC50 [21]: > 120 µM (not active); EC50 [22]: < 0.1 µM (inconclusive); EC50 [23]: 2.7 µM (active)

Question: With `Cc1ccc(Cl)cc1NC(=O)Nn1cnnc1` as the compound, how does the IC50 [24] read?
Answer: Its IC50 is 1.7 µM (active).

Question: What about the IC50 [25] of the same compound?
Answer: The IC50 was > 59.6 µM (not active).

Question: What does the source list for `CCCOC(=O)CCCN1C(=O)/C(=C2\SC(=S)N(CCCC(=O)OCCC)C2=O)SC1=S`?
Answer: EC50 [1]: > 55.7 µM (not active); EC50 [2]: > 55.7 µM (not active)

Question: For `O=C(/C=C(/c1ccc(Cl)cc1)n1cncn1)c1ccccc1`, which EC50 [19] is on record?
Answer: The EC50 was > 12 µM (not active).

Question: What about the EC50 [20] of the same compound?
Answer: The EC50 was > 12 µM (not active).

Question: And the EC50 [26]?
Answer: Its EC50 is > 120 µM (not active).

Question: What about the EC50 [21] of the same compound?
Answer: Its EC50 is > 120 µM (not active).

Question: What about the EC50 [22] of the same compound?
Answer: The EC50 was > 120 µM (not active).

Question: And the EC50 [23]?
Answer: The EC50 was > 12 µM (not active).
